Columns and labels:
Aβ fibrils = target: T1, Aβ fibrils (Homo sapiens, UniProt P05067); experiment: Dot blot assay of Aβ fibrillar aggregation inhibition (OC antibody); assay type: biochemical; conditions: Aβ 10 μM; for inhibition of the formation of Aβ fibrils: NMIs 20 μM, PBS pH 7.4, 37° C., 48 h
T1 construct: is a 42 amino acid proteolytic product from the amyloid precursor protein; purchased Invitrogen
Description: Aggregation modulation by toxic Aβ aggregates were assessed and were quantified by dot blot assay. Aβ peptide (10 μM) was dissolved in phosphate buffered saline (PBS, 10 mM, pH 7.4), incubated alone and with NMIs (20 μM) at 37° C. for 48 h. For concentration dependent inhibition, 10 μM Aβ peptide was incubated with 1, 2, 5, 10 and 20 μM of NMIs and incubated. Samples for oligomer inhibition studies were prepared by incubating Aβ alone and with NMIs at 4° C. for 24 and subjected to dot blot analysis. For dissolution studies, Aβ peptide alone was incubated in PBS for 48 h to prepare fibrils and then incubated with NMIs further for 48 h. For dot blot experiment, 5 μL of sample was blotted on activated PVDF (polyvinylidene fluoride) membrane in triplicates and air dried. The membrane was blocked with skimmed milk powder for 1 h at room temperature. The blot paper was washed with tris-buffered saline with 0.01% Tween 20 (TBST) three times for 5 min. Blot paper was treated with fibril specific OC primary antibody (Rabbit, 1:1000 dilution) overnight at 4° C. For oligomers blot A11 anti-oligomer antibody (Rabbit 1:1000) was used. Blot was washed thrice with TBST and treated with HRP-conjugated antirabbit secondary antibody (1:5000 dilutions) for 1 h at room temperature. The bolt was washed thrice for 5 min with TBST and developed with ECL reagent (Biorad) and imaged with ChemiDoc BioRad gel documentation system in autoexposure mode. Blots were analyzed and quantified by ImageJ software. The ability of the NMIs, the compounds of the present disclosure M1-M4 to inhibit Aβ aggregation and dissolve the preformed fibrillar aggregates was evaluated by dot blot assay as explained in Example 2 above. Aβ (10 μM) was incubated alone and with NMIs (20 μM) in phosphate buffer saline (PBS, 10 mM and pH 7.4) at 37° C. for 48 h to form Aβ fibrillar aggregates. The samples were blotted and probed with fibril-selective OC antibody (rabbit anti-human amyloid fibrils). […] M3 was further assessed for inhibitory effect at lower concentrations. […] It has been observed that the oligomers are a highly toxic species compared to Aβ fibrillar aggregates. The ability of NMIs (M3) to inhibit the formation of Aβ oligomers was assessed by dot blot assay. Aβ peptide (10 μM) was incubated with NMIs at 4° C. for 24 h followed by probing with A11 oligomer-specific antibody. […] Native PAGE and western blot analysis was carried out to understand the size distribution of Aβ aggregated species. […] In order to analyse the higher order aggregates not permeable in the gel matrix and the morphological characteristics, Aβ samples were subjected to atomic force microscopy (AFM) imaging.

Aβ = target: T2, Aβ (Homo sapiens, UniProt P05067); experiment: AFM imaging of Aβ samples; conditions: for morphology of Aβ sample, aggregation inhibition: Aβ 10 μM, FIG. 1C
T2 construct: is a 42 amino acid proteolytic product from the amyloid precursor protein; purchased Invitrogen
Description: AFM imaging was done to understand the morphological characteristics of Aβ and NMI treated samples. The samples from Aβ aggregation inhibition and dissolution studies were used for AFM imaging. 25 μL of sample was drop-casted on freshly cleaved mica substrate. The Aβ samples were allowed to adhere to substrate surface for 15 min, washed with filtered MiliQ water and air dried. The samples were imaged in Scan assist Air mode in Bioscope resolve AFM system (Bruker). The images were processed and analyzed using NanoScope analysis software. […] It has been observed that the oligomers are a highly toxic species compared to Aβ fibrillar aggregates. The ability of NMIs (M3) to inhibit the formation of Aβ oligomers was assessed by dot blot assay. Aβ peptide (10 μM) was incubated with NMIs at 4° C. for 24 h followed by probing with A11 oligomer-specific antibody. […] Native PAGE and western blot analysis was carried out to understand the size distribution of Aβ aggregated species. […] In order to analyse the higher order aggregates not permeable in the gel matrix and the morphological characteristics, Aβ samples were subjected to atomic force microscopy (AFM) imaging.

SH-SY5Y cells = experiment: Neuronal cell rescue from Aβ toxicity (MTT); assay type: cell-based; conditions: Aβ 10 μM
Description: Cell rescue from Aβ toxicity by NMIs were assessed in SH-SY5Y cells. The cells were seeded into 96 well plate at cell density of 25,000 cells per well and after 24 h the media was replaced with DMEM-F12 with low serum (2.5% FBS). After 6 h, cells were treated with Aβ (10 μM) alone and with NMIs (20 μM) in low serum media. Different concentrations of compound (10, 20 and 50 μM) were used to treat cells. For metal dependent studies, Aβ (10 μM) with metals (20 μM) in the absence and presence of NMIs (20 μM) was treated. The cells were incubated for 30 h and MTT assay was performed to calculate the percentage cell viability.
Compounds of the present disclosure (M1 to M4) were evaluated for their ability to rescue neuronal cells from Aβ toxicity by MTT assay.
Further, the effect of concentration of compounds of the present disclosure on the cell rescue was assessed. […] The ability of NMIs to rescue cells from metal-dependent Aβ toxicity were assessed in the presence of Cu (II) and Zn (II). Cells were treated with Aβ (10 μM) along with metal ions (20 μM) and NMIs (20 μM) for 30 h. Aβ in the presence of Cu (II) reduced cell viability to ˜62% and M3 treatment had rescued cells with viability to 85% (FIG. 12C). Aβ with Zn (II) viability reduced to ˜61% and M3 treatment rescued cells by improving the viability to ˜79% (FIG. 12D). […] These in-cellulo experiments confirmed the ability of M3 to effectively rescue neuronal cells from metal-independent and dependent Aβ toxicity.

[1] = modulators 20 μM, Aβ alone ~52%, FIG. 12A

T2 sequence (P05067 672-713 limits assumed): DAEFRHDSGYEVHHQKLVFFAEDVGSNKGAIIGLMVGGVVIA
T1 sequence (P05067 672-713 limits assumed): as above

SMILES	IC50 (Aβ fibrils) [nM]	inhibition of Aβ aggregation (Aβ fibrils; 0.1 molar ratio) [%]	inhibition of Aβ aggregation (Aβ fibrils; 0.2 molar ratio) [%]	inhibition of Aβ aggregation (Aβ fibrils; 0.5 molar ratio) [%]	inhibition of Aβ aggregation (Aβ fibrils; 1 molar ratio) [%]	inhibition of Aβ aggregation (Aβ fibrils; 2 molar ratio) [%]	inhibition of the formation of Aβ fibrils (Aβ fibrils) [%]	morphology of metal-dependent Aβ aggregation (Aβ; Aβ 10 μM with Cu (II) or Zn (II), NMIs 20 μM, FIGS. 1E and 1F)	morphology of Aβ sample, aggregation inhibition (Aβ; NMIs 20 μM)	morphology of preformed fibrils after treatment (Aβ; Aβ aggregates 10 μM, FIG. 4C)	cell viability (SH-SY5Y cells; 50 μM compound, control 54%, FIG. 12B)	cell viability (SH-SY5Y cells; [1])	viability at 5 µM (SH-SY5Y cells; Homo sapiens, SH-SY5Y, 5 μM compound, control 54%, FIG. 12B) [%]	viability at 10 µM (SH-SY5Y cells; Homo sapiens, SH-SY5Y, 10 μM compound, control 54%, FIG. 12B) [%]	viability at 20 µM (SH-SY5Y cells; Homo sapiens, SH-SY5Y, 20 μM compound, control 54%, FIG. 12B) [%]
O=C1c2cccc3c(N(Cc4ccccn4)Cc4ccccn4)ccc(c23)C(=O)N1CCc1ccc(O)c(O)c1 [M3, 6-(bis(pyridin-2-ylmethyl)amino)-2-(3,4-dihydroxyphenethyl)-1H-benzo[de]isoquinoline-1,3(2H)-dione]	1000	37	42	55	74	90	94	minimal Aβ fibrils and mostly small amorphous clumps	amorphous structures	amorphous clumps	near-complete rescue	~75%	68	70	83
CN(C)c1ccc2c3c(cccc13)C(=O)N(CCc1ccc(O)c(O)c1)C2=O [M1, 2-(3,4-dihydroxyphenethyl)-6-(dimethylamino)-1H-benzo[de]isoquinoline-1,3(2H)-dione]	–	–	–	–	–	–	~95	–	amorphous structures	–	–	lowered alleviation of the Aβ toxicity	–	–	–

— US20250179024A1, “AMYLOID AND ASSOCIATED PATHOLOGY MODULATORS AND METHODS THEREOF” (Jawaharlal Nehru Centre for Advanced Scientific Research, priority 2022, published 2025)
